Six compounds from ChEMBL document CHEMBL1145498, “A systematic interaction map of validated kinase inhibitors with Ser/Thr kinases” (Proc Natl Acad Sci U S A, 2007) can be followed below.

Assay [1] concerns the target Serine/threonine-protein kinase VRK2 (Homo sapiens) (UniProt Q86Y07).
For assay [2], the target named is TRAF2 and NCK-interacting protein kinase (Homo sapiens) (UniProt Q9UKE5).
Assay [3] has as its target T1, Mitogen-activated protein kinase kinase kinase 5 (Homo sapiens) (UniProt Q99683).
T1 sequence (whole entry): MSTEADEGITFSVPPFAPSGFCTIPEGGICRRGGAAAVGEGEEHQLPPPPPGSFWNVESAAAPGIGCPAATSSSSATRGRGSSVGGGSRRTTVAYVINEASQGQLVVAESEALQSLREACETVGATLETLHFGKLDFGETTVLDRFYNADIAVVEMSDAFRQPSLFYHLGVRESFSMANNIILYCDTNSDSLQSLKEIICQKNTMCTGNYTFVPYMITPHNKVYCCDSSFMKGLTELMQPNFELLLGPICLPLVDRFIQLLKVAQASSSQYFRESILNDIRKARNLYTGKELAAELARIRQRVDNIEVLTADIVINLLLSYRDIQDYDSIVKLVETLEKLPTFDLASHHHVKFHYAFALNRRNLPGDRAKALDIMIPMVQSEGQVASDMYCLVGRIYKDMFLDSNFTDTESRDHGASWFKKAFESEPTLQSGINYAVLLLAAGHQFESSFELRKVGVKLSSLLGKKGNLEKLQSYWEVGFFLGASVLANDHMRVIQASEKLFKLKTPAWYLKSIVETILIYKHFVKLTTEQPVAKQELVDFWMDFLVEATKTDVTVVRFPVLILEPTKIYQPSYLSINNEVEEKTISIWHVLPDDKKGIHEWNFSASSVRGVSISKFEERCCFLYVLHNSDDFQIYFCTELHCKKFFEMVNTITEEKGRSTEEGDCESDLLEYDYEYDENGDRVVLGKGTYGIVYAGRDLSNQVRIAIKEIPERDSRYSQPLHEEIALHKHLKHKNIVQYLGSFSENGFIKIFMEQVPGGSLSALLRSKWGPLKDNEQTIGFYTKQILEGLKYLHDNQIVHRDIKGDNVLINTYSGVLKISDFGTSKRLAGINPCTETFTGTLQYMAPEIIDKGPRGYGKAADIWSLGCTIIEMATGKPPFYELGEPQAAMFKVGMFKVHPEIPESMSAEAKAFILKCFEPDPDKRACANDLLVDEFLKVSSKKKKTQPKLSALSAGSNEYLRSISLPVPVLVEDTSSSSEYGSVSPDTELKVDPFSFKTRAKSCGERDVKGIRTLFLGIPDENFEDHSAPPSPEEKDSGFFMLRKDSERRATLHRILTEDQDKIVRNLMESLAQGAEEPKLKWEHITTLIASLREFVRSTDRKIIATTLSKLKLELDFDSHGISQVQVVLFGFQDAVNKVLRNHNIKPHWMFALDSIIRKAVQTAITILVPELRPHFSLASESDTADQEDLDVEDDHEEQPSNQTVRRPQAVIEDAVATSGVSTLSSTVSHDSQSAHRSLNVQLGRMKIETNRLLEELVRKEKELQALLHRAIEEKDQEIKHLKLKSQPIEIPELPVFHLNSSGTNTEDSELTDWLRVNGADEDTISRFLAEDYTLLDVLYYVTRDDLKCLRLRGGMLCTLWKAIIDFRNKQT

The target of assay [4] is Serine/threonine-protein kinase PAK 5 (Homo sapiens) (UniProt Q9P286).
Assay [5] deals with Cyclin-dependent kinase 6 (Homo sapiens) (UniProt Q00534).
Assay [6] deals with Glycogen synthase kinase-3 beta (Homo sapiens, UniProt P49841).
In assay [7] the target is Calcium/calmodulin-dependent protein kinase type II subunit beta (Homo sapiens) (UniProt Q13554).
For assay [8], the target named is Mitogen-activated protein kinase 3 (Homo sapiens, UniProt P27361).
Assay [9] deals with Calcium/calmodulin-dependent protein kinase type II subunit delta (Homo sapiens) (UniProt Q13557).
In assay [10] the target is Calcium/calmodulin-dependent protein kinase type II subunit alpha (Homo sapiens) (UniProt Q9UQM7).
For assay [11], the target named is Serine/threonine-protein kinase 26 (Homo sapiens) (UniProt Q9P289).
The target of assay [12] is Serine/threonine-protein kinase 16 (Homo sapiens) (UniProt O75716).
Assay [13] deals with Calcium/calmodulin-dependent protein kinase type 1G (Homo sapiens) (UniProt Q96NX5).
For assay [14], the target named is Tyrosine-protein kinase JAK1 (Homo sapiens) (UniProt P23458).
The target in assay [15] is Serine/threonine-protein kinase pim-2 (Homo sapiens, UniProt Q9P1W9).
Assay [16] concerns the target Serine/threonine-protein kinase PLK1 (Homo sapiens) (UniProt P53350).
Assay [17] addresses Serine/threonine-protein kinase 10 (Homo sapiens) (UniProt O94804).
Assay [18] deals with Serine/threonine-protein kinase Chk2 (Homo sapiens, UniProt O96017).
Assay [19] concerns the target Serine/threonine-protein kinase Nek6 (Homo sapiens) (UniProt Q9HC98).
Assay [20] deals with Serine/threonine-protein kinase 26 (Homo sapiens) (UniProt Q9P289). This is another data set of the same source.
Assay [21] concerns the target T2, Serine/threonine-protein kinase 17A (Homo sapiens) (UniProt Q9UEE5).
T2 sequence (whole entry): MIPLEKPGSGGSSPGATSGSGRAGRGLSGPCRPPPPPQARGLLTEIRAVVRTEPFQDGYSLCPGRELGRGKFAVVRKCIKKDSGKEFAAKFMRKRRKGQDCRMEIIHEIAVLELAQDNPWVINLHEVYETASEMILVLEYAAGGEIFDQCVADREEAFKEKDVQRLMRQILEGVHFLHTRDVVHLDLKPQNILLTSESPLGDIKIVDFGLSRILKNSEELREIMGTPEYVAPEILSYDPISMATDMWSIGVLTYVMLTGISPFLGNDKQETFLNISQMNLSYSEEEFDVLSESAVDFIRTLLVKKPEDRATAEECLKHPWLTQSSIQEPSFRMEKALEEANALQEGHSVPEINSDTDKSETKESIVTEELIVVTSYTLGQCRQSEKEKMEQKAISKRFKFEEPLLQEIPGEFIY

Serine/threonine-protein kinase VRK2 (Homo sapiens), sequence (Q86Y07 whole entry): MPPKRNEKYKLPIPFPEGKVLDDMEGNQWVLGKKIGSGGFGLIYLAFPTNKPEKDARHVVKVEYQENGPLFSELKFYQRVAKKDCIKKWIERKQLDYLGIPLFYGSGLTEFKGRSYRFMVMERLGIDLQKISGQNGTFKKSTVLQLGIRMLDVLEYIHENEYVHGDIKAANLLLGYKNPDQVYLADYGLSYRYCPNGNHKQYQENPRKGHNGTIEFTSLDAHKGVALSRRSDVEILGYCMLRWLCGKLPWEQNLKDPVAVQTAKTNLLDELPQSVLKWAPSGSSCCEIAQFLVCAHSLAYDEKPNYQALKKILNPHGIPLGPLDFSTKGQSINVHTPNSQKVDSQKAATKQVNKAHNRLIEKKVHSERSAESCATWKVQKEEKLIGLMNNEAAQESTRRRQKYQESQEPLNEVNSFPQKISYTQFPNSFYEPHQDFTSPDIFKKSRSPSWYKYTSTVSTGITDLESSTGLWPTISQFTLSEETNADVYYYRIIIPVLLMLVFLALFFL
Serine/threonine-protein kinase Chk2, sequence (O96017 whole entry): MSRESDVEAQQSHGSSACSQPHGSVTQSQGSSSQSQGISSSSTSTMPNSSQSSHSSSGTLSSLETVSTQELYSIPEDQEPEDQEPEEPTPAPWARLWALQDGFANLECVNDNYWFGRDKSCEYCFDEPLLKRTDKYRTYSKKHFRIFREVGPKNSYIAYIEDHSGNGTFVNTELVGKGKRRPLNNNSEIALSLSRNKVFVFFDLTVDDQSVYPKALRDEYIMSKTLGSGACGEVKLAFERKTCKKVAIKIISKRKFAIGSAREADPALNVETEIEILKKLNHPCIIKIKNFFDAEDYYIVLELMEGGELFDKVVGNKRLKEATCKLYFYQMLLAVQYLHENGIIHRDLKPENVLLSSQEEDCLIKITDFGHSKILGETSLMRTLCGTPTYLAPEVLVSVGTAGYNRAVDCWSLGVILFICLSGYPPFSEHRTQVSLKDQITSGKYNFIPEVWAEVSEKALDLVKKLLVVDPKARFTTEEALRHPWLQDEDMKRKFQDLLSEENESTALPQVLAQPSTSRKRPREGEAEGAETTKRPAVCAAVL
Cyclin-dependent kinase 6 (Homo sapiens), sequence (Q00534 whole entry): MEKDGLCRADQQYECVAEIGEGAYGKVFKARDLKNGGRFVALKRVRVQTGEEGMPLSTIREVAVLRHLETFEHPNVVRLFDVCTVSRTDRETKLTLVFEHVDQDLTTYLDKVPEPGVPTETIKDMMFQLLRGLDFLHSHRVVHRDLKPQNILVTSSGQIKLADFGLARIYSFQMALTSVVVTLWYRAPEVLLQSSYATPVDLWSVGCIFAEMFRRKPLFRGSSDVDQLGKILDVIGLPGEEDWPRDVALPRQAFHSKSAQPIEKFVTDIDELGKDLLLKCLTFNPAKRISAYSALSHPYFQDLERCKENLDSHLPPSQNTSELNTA
Serine/threonine-protein kinase 16 (Homo sapiens), sequence (O75716 whole entry): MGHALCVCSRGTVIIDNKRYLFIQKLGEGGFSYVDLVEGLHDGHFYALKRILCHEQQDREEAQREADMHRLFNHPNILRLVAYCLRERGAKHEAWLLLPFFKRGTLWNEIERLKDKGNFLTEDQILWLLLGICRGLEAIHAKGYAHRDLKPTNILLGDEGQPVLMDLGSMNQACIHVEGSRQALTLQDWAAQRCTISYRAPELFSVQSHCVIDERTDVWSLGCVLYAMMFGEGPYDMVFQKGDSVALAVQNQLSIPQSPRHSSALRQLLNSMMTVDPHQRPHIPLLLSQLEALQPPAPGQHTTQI
Serine/threonine-protein kinase pim-2, sequence (Q9P1W9 whole entry, looked up): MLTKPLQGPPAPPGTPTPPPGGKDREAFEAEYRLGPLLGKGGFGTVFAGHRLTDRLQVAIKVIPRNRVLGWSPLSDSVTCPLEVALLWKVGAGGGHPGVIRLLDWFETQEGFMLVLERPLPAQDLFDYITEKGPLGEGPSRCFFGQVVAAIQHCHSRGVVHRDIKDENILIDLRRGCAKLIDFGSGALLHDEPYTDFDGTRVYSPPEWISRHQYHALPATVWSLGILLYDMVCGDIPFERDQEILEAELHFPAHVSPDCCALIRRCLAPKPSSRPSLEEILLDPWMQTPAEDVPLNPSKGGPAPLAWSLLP
Mitogen-activated protein kinase 3, sequence (P27361 whole entry): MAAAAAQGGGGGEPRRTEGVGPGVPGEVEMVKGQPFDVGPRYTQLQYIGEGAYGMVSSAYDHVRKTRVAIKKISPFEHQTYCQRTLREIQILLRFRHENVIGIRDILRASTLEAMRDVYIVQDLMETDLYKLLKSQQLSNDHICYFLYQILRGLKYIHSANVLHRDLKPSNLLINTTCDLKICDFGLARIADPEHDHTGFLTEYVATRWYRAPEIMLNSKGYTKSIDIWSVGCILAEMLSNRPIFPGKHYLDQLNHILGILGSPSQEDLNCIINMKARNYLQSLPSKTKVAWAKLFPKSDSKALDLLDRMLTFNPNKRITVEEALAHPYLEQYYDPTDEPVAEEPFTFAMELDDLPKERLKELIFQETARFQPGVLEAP
Glycogen synthase kinase-3 beta, sequence (P49841 whole entry, looked up): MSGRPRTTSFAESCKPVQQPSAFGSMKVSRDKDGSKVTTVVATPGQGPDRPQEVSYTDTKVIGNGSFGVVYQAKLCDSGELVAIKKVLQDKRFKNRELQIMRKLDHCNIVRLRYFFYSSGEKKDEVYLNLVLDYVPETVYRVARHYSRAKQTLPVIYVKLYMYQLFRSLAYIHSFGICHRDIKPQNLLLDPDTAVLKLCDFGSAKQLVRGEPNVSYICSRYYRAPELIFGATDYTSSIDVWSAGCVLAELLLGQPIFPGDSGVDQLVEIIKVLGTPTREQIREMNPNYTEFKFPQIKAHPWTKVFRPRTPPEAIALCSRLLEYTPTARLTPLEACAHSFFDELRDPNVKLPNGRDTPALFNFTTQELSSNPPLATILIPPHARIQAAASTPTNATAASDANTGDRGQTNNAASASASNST
Serine/threonine-protein kinase PLK1 (Homo sapiens), sequence (P53350 whole entry): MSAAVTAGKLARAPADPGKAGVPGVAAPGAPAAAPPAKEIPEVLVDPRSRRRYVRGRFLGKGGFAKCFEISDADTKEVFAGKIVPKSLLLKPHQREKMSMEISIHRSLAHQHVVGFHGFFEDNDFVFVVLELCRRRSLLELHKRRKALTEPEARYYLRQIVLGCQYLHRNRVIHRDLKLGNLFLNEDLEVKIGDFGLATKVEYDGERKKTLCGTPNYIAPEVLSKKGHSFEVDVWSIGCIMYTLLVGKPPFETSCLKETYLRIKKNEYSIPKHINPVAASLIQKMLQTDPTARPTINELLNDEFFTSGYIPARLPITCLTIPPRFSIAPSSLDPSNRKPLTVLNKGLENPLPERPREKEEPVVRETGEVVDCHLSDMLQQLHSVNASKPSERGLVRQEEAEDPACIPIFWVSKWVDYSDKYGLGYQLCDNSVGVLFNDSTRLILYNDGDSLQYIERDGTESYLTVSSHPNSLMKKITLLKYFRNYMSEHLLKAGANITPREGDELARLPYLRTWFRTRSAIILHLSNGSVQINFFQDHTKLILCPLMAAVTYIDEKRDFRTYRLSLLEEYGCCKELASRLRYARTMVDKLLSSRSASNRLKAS
Calcium/calmodulin-dependent protein kinase type 1G (Homo sapiens), sequence (Q96NX5 whole entry): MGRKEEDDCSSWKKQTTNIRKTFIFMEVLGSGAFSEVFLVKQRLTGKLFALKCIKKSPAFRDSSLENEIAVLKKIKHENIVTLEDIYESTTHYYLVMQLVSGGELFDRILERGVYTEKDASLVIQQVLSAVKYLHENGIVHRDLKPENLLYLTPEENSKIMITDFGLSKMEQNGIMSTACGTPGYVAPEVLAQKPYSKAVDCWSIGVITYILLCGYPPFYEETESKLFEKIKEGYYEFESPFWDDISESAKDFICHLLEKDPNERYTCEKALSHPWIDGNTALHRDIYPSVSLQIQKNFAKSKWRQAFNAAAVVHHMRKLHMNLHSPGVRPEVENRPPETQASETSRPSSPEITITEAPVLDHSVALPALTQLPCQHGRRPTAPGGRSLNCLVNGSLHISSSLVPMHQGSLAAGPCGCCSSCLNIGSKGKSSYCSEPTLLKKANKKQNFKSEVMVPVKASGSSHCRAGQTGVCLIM
Calcium/calmodulin-dependent protein kinase type II subunit alpha (Homo sapiens), sequence (Q9UQM7 whole entry): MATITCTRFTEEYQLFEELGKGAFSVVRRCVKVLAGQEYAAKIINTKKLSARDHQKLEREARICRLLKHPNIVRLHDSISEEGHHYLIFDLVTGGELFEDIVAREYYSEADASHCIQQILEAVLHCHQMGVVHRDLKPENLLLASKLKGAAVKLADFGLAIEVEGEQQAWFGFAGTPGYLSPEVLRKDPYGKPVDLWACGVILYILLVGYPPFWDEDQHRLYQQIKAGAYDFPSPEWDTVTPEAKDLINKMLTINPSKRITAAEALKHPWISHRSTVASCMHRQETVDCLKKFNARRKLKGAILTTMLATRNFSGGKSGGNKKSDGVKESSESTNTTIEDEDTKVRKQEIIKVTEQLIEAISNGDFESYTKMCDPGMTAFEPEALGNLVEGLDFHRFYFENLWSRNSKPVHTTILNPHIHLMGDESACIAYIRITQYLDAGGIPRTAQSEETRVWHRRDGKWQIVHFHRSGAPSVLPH
Calcium/calmodulin-dependent protein kinase type II subunit delta (Homo sapiens), sequence (Q13557 whole entry): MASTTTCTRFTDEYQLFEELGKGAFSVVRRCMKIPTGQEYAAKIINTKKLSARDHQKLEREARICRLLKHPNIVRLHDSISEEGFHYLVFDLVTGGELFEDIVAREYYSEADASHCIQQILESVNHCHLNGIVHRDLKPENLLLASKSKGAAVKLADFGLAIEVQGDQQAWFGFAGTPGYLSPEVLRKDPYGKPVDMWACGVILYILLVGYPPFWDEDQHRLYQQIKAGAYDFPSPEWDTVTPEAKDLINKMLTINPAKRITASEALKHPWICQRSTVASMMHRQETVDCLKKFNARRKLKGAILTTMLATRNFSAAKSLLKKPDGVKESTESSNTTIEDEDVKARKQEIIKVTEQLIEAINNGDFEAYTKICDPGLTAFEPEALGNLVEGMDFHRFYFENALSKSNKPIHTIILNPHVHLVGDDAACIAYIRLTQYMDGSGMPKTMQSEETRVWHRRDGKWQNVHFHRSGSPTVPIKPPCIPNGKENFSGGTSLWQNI

For the compound `Nc1nccc(-c2c(-c3ccc(F)cc3)ncn2C2CCNCC2)n1`, the ΔTm was 0.2 °C in assay [1]; -0.9 °C in [2]; 0.3 °C in [3]; 0 °C in assay [4]; 0.3 °C in assay [5]; 0.9 °C in [6]. Also, the ΔTm is -0.2 °C in [7]; 0.5 °C in assay [8]; 0.2 °C in [9]; 0.4 °C in assay [10]; -1.3 °C in assay [11]; -0.1 °C in [12]. Besides, the ΔTm was 0.3 °C in [13]; 0.7 °C in assay [14]; 0.2 °C in assay [15]; 0.1 °C in assay [16]; 1.5 °C in assay [17]; 0.1 °C in assay [18]. Besides, the ΔTm is -0.2 °C in assay [19], 2.1 °C in [20] and 0.4 °C in [21].
In the case of `Oc1ccc(-c2nc(-c3ccc(F)cc3)c(-c3ccncc3)[nH]2)cc1`, the ΔTm in [1] was found to be 0.7 °C; in [2] it was 1.9 °C; in assay [3], 0.3 °C; in [4], 0.5 °C; in assay [5], 0.2 °C; in assay [6], 4.7 °C. In addition, the ΔTm in assay [7] is 0.1 °C; in assay [8], 0.4 °C; in assay [9], -0.1 °C; in assay [10], 0.4 °C; in assay [11], 0 °C; in assay [12], 0.5 °C. For the same compound, the ΔTm in assay [13] was -0.1 °C; in assay [14], 4.4 °C; in assay [15], 0.8 °C; in assay [16], 0.1 °C; in [17] it was 4.4 °C; in assay [18], -0.2 °C. The ΔTm was 0.4 °C in [19], -0.4 °C in [20] and 1 °C in assay [21].
For the compound `O=C1Nc2ccccc2/C1=C1/Nc2ccccc2/C1=N\O`, the ΔTm in assay [1] was 4.2 °C; in assay [2], 5.9 °C; in [3] it was 5.6 °C; in assay [4], 3.3 °C; in assay [5], 5.9 °C; in [6], 11 °C. Also, the ΔTm in [7] amounted to 2.1 °C; in assay [8], 0.8 °C; in [9], 2.8 °C; in [10], 6.1 °C; in assay [11], 4.4 °C; in assay [12], 11.7 °C. Further, the ΔTm in assay [13] was 3.1 °C; in assay [14], 13.1 °C; in assay [15], 2.8 °C; in assay [16] it was 1.6 °C; in assay [17] it was 6.2 °C; in [18], 4.9 °C. The figures for the ΔTm in assay [19], in [20] and in [21] were 1.2 °C, 7 °C and 9.9 °C, respectively.
With `Nc1cc2ncnc(Nc3cccc(Br)c3)c2cc1N`, the ΔTm in assay [1] was found to be 1.2 °C; in [2], 0.5 °C; in assay [3] it was 0.4 °C; in assay [4] it was 0.2 °C; in assay [5] it was 0.8 °C; in assay [6], 1.2 °C. In addition, the ΔTm was -0.4 °C in assay [7]; 0.4 °C in assay [8]; -1.6 °C in assay [9]; 0 °C in assay [10]; 3.6 °C in [11]; 0.1 °C in assay [12]. Also, the ΔTm in assay [13] is 0.5 °C; in [14], 2.2 °C; in assay [15] it was 2.6 °C; in assay [16], -1.4 °C; in assay [17], 6.1 °C; in assay [18] it was 1.8 °C. Also, the figures for the ΔTm in assay [19], in [20] and in assay [21] were -0.2 °C, 4.2 °C and 7.7 °C, respectively.
For `CC(C)(C)c1nc2c3ccc(F)cc3c3c(=O)[nH]ccc3c2[nH]1`, the ΔTm stood at 1.8 °C in [1]; 3 °C in [2]; 4.9 °C in assay [3]; 2.1 °C in assay [4]; 0.4 °C in assay [5]; 3 °C in assay [6]. Moreover, the ΔTm in [7] came to 1.3 °C; in assay [8], 3.1 °C; in assay [9], 1.2 °C; in assay [10] it was 2.6 °C; in assay [11], 4.1 °C; in assay [12], 3.5 °C. For the same compound, the ΔTm is 1.9 °C in assay [13]; 6.9 °C in assay [14]; 5.1 °C in assay [15]; 11.9 °C in [16]; 6.4 °C in assay [17]; 14.1 °C in assay [18]. Further, the ΔTm in assay [19] came to 0.3 °C; in assay [20], 3.6 °C; in [21], 13.7 °C.
As for `Nc1ncnc2c1c(I)cn2[C@@H]1O[C@H](CO)[C@@H](O)[C@H]1O`, the ΔTm was 0.1 °C in assay [1]; 1.6 °C in assay [2]; 0.9 °C in assay [3]; 0.7 °C in assay [4]; -0.2 °C in assay [5]; 2 °C in assay [6]. For the same compound, the ΔTm in assay [7] is 0.4 °C; in assay [8], 1.5 °C; in [9], -0.4 °C; in assay [10], 0.7 °C; in assay [11], 1.4 °C; in [12] it was 3.9 °C. Besides, the thermal shift (ΔTm) stood at 0.2 °C in assay [13]; 0.2 °C in assay [14]; 1 °C in [15]; 1 °C in assay [16]; 4.7 °C in assay [17]; 0.9 °C in assay [18]. Further, the ΔTm in assay [19] was -0.2 °C; in [20], 2.1 °C; in [21], 2.8 °C.

One may read the ΔTm as the shift of the melting midpoint relative to a reference.
